Experiments:
[1] = tested on: Ts65dn mouse model of Down syndrome (DS); conditions: cited from earlier work
[2] = tested on: APP/PS1 transgenic (tg) mouse model of AD; conditions: cited from earlier work
[3] = tested on: hippocampal slices APP/PS1 transgenic mice; assay: Electrophysiological study: long-term potentiation (LTP) in hippocampal slices; assay type: in vivo
Protocol: Animals: Heterozygous double transgenic mice expressing both human APP (K670N:M671L) and human PS1 (M146L) (line 6.2) and their wild-type non-transgenic littermates, both males and females, were used for these experiments. They were obtained by a breeding colony maintained at the animal facility of Columbia University. They were genotyped through PCR on tail samples. Animals were injected i.p. from the age of […] for 1 month prior to starting behavioral assessment which lasted for 2 weeks during which treatment continued. Behavioral assessment examined spatial and associative memory. Finally, mice were sacrificed for electrophysiological assessment of synaptic function.
Mice were coded to blind investigators with respect to genotype and treatment. Results were expressed with Standard Error of the Mean (SEM). Level of significance was set for p<0.05. Results were analyzed by ANOVA analysis with post-hoc correction with the combination or genotype as main effect. Experiments were designed in a balanced fashion, and mice were trained and tested at each of the different conditions in 3 or 4 separate experiments.
Mice were i.p. injected with the drug from the age of 8 weeks prior to plaque appearance until euthanasia for collecting slices at the age of 14-16 weeks. The treatment with Buntanetap was daily, whereas the treatment with dulaglutide was twice a week.
Electrophysiological analysis was performed on 400 μm hippocampal slices, cut with a tissue chopper and maintained in an interface chamber at 29° C. for 90 min prior to recording. Briefly, CA1 fEPSPs were recorded by placing both the stimulating and the recording electrodes in CA1 stratum radiatum. Basal synaptic transmission was assayed, either by plotting the stimulus voltages against slopes of fEPSP, or by plotting the peak amplitude of the fiber volley against the slope of the fEPSP. For LTP experiments, a 15 min baseline was recorded every min at an intensity that evokes a response ˜35% of the maximum evoked response. LTP was induced using θ-burst stimulation (4 pulses at 100 Hz, with the bursts repeated at 5 Hz and each tetanus including 3 ten-burst trains separated by 15 see). Data was subjected to statistical analyses to determine the effects of combination on inhibiting synaptic dysfunction.

**Q.** With `CN1CC[C@]2(C)c3cc(OC(=O)Nc4ccccc4)ccc3N(C)C12` (stereo partly drawn) [Buntanetap, (3aR)-1,3a,8-trimethyl-1,2,3,3a,8,8a-hexahydropyrrolo[2,3-b]indol-5-yl phenylcarbamate] as the compound, how does the memory and learning [1] read?
**A.** Restored

**Q.** What about the memory and learning ([2]; APP/PS1 transgenic (tg) mouse model of AD) of the same compound?
**A.** Restored

**Q.** And the impaired synaptic transmission ([2]; hippocampus of APP/PS1 tg mice)?
**A.** Normalized

**Q.** What about the “% Improvement (Residual Potential)” value ([3]; APP/PS1, Buntanetap 1 mg/kg) of the same compound?
**A.** 4.8%

**Q.** And the “Residual Potential (mean)” value ([3]; APP/PS1, Buntanetap 1 mg/kg i.p. daily)?
**A.** 141.55

**Q.** And the “Residual Potential (mean)” value ([3]; APP/PS1, Buntanetap 10 mg/kg i.p. daily)?
**A.** 213.56

**Q.** What about the “% Improvement (Residual Potential)” value ([3]; APP/PS1, Buntanetap 10 mg/kg, 100% = wt veh minus APP/PS1 veh) of the same compound?
**A.** 90.5%

**Q.** And the “impairment of synaptic plasticity measured through Long-term potentiation (LTP)” value ([3]; APP/PS1 mice, Buntanetap 1 mg/Kg and/or dulaglutide 0.1 mg/Kg)?
**A.** did not ameliorate
